# Laboratory results published in patent US10772840B2 (Charleston Laboratories, Inc., priority 2016, dated 2020).
# Structures can show the parent of a compound that is named as a salt.
# Test: Impurity profile (related substances) by HPLC, initial and after one month at 40° C. (stability study)
# Type: physicochemical
# Conditions: HPLC percent area
# Procedure: The percentages of related substances were measured using an HPLC.
# Stock promethazine HCl selectivity solution was prepared by accurately weighing about 2 mg of EP promethazine for peak identification CRS and transferring into 1 mL of diluent (prepared by mixing 750 mL of mobile phase A and 250 mL of acetonitrile), followed by vortexing to dissolve.
# Ten capsules were randomly selected and weighed. The contents of the ten capsules were emptied into a 500 mL volumetric flask. 300 mL of diluent was added and the mixture was sonicated in an ice bath for 40 minutes or until completely disintegrated with intermittent swirling. The temperature was equilibrated to room temperature and more diluent was added to volume.
# Promethazine HCl impurity sample solution: stock solution sample was filtered through a 0.45 μm PVDF membrane, syringe filter or a 0.45 μm PTFE w/GMF membrane, syringe filter discarding the first 5 mL and collecting approximately 20 mL into an appropriate glass container. Fill an HPLC vial with the filtrate
# The RT of the promethazine in the promethazine HCl selectivity solution is between 44.1 and 53.9.
# Mobile Phase B: 0.2% TFA in Acetonitrile, which was prepared by mixing well 2.0 ml of trifluoroacetic acid to 1 L of acetonitrile; and Gradient used was as follows in Table 15.
# All known and unknown impurities were calculated via percent area as follow:
# [formula] Where: • Ru=Peak area of related substance in the sample solution • Rt=Sum of peak area of promethazine or sumatriptan and all related substances areas corresponding to respective peak in sample solution • RRF=Relative Response Factor for related substances
# The formulation was examined for its stability after one month at 40° C.
compound,measurement,setting,value
"CC(CN1c2ccccc2Sc2ccccc21)N(C)C (centres unmarked) [Promethazine, Promethazine Hydrochloride]","Impurity percentages, all related substances combined",in a capsule stored at 40° C. for 1 month,0.2%
same,"Impurity percentages, all related substances combined","in a capsule, initial (before storage)",0.3%
